Here are results for 19 molecules from US9920036B2, “Cyanoamino (aza)benzofuran compounds for the treatment of hepatitis C” (BRISTOL-MYERS SQUIBB COMPANY, priority 2014, dated 2018).

Data set [1] concerns genotype 1b (Con-1) HCV replicon. The data set is described as follows: HCV replicon luciferase assay. In kind it is cell-based. Conditions: Hepatitis C virus, 72 h, Huh-7 cells with genotype 1b HCV replicon, Renilla luciferase, 3 days incubation; for pEC50: read-out: EC50 1b (class); for EC50: read-out: EC50 (μM) 1b. Here is the method: Cell lines. The cell lines used to evaluate compounds consist of a human hepatocyte derived cell line (Huh-7) that constitutively expresses a genotype 1b (Con-1) HCV replicon or a genotype 1b (Con-1) HCV replicon with an asparagine replacing the cysteine at amino acid 316, or a genotype 2a (JFH-1) replicon, containing a Renilla luciferase reporter gene. These cells were maintained in Dulbecco's modified Eagle medium (DMEM) containing 10% FBS, 100 U/mL penicillin/streptomycin and 1.0 mg/mL G418.
HCV replicon luciferase assay. To evaluate compound efficacy, titrated compounds were transferred to sterile 384-well tissue culture treated plates, and the plates were seeded with HCV replicon cells (50 μL at a density of 2.4×10^3 cells/well) in DMEM containing 4% FBS (final DMSO concentration at 0.5%). After 3 days incubation at 37° C., cells were analyzed for Renilla Luciferase activity using the EnduRen substrate (Promega cat #E6485) according to the manufacturer's directions. Briefly, the EnduRen substrate was diluted in DMEM and then added to the plates to a final concentration of 7.5 μM. The plates were incubated for at least 1 h at 37° C. then read on a Viewlux Imager (PerkinElmer) using a luminescence program. The 50% effective concentration (EC50) was calculated using the four-parameter logistic formula noted above.
Compound EC50 data is expressed as A: <100 nM; B=100-1000 nM; C>1000 nM).
A general note: In antiviral work, replicon cells carry a viral genome segment that copies itself.

Data set [2] has as its system HCV. To be noted: cited from earlier work.
In data set [3] the test system is HCV. Conditions: combination therapy; cited from earlier work.

Usually pEC50 stands for the EC50 on a negative log10 scale, so that one unit is a factor of ten. Broadly, the EC50 is the concentration needed to bring the measured effect to its halfway point.

pEC50: −log10 of the molar value. Where two headings read alike, the source gives them in different places.

In the case of `CCN(C#N)c1cc2oc(-c3ccc(F)cc3)c(C(=O)NC)c2cc1-c1cccc(C(=O)NCC(C)(C)c2ccccc2)c1` [Compound 1001], the pEC50 in data set [1] was more than 7.00.
Regarding `CCN(C#N)c1cc2oc(-c3ccc(F)cc3)c(C(=O)NC)c2cc1-c1cccc(C(=O)NCC(F)(F)C(F)(F)C(F)(F)C(F)(F)F)c1` [Compound 1002], in data set [1], the pEC50 is more than 7.00 and the EC50 came to 0.047 µM.
Consider `CCN(C#N)c1cc2oc(-c3ccc(F)cc3)c(C(=O)NC)c2cc1-c1ccc(OC)c(C(=O)NC(CF)(CF)CF)c1` [Compound 1003], for which the pEC50 in data set [1] is more than 7.00.
Consider `CCN(C#N)c1cc2oc(-c3ccc(F)cc3)c(C(=O)NC)c2cc1-c1cccc(C(=O)NC(C)(C)CC(C)O)c1` (stereo not shown) [Compound 1004], for which, in data set [1], the pEC50 was more than 7.00 and the EC50 came to 0.013 µM.
With `CCN(C#N)c1cc2oc(-c3ccc(F)cc3)c(C(=O)NC)c2cc1-c1cccc(C(=O)NC(C)(C)CO)c1` [Compound 1005], the pEC50 in data set [1] was more than 7.00.
In the case of `CCN(C#N)c1cc2oc(-c3ccc(F)cc3)c(C(=O)NC)c2cc1-c1cccc(C(=O)NC(C)(C)COC)c1` [Compound 1006], the pEC50 in data set [1] is more than 7.00.
Regarding `CCN(C#N)c1cc2oc(-c3ccc(F)cc3)c(C(=O)NC)c2cc1-c1cccc(C(=O)NC(C)(C)C#N)c1` [Compound 1007], in data set [1], the pEC50 is more than 7.00 and the EC50 turned out to be 0.0041 µM.
Regarding `CCN(C#N)c1cc2oc(-c3ccc(F)cc3)c(C(=O)NC)c2cc1-c1ccc(OC)c(C(=O)NC2(C#N)CCCC2)c1` [Compound 1008], the pEC50 in data set [1] is more than 7.00.
On to `CCN(C#N)c1cc2oc(-c3ccc(F)cc3)c(C(=O)NC)c2cc1-c1ccc(F)c(C(=O)NC2(c3ncccn3)CC2)c1` [Compound 1009], for which the pEC50 in data set [1] was more than 7.00.
For `CCN(C#N)c1cc2oc(-c3ccc(F)cc3)c(C(=O)NC)c2cc1-c1cccc(C(=O)NC2(C(F)(F)F)CC2)c1` [Compound 1010], the pEC50 in data set [1] was more than 7.00.
Regarding `CCN(C#N)c1cc2oc(-c3ccc(F)cc3)c(C(=O)NC)c2cc1-c1cccc(C(=O)NC(C)(CO)CO)c1` [Compound 1011], the pEC50 in data set [1] was 6.00 to 7.00.
Take `CCN(C#N)c1cc2oc(-c3ccc(F)cc3)c(C(=O)NC)c2cc1-c1cccc(C2=NC(C)(C)C(=O)O2)c1` [Compound 1012]: in data set [1], the pEC50 was 6.00 to 7.00 and the EC50 is 0.36 µM.
With `CCN(C#N)c1cc2oc(-c3ccc(F)cc3)c(C(=O)NC)c2cc1-c1cccc(C(=O)NC2(c3ncccn3)CC2)c1` [Compound 1013], the pEC50 in data set [1] was more than 7.00.
Take `CCN(C#N)c1cc2oc(-c3ccc(F)cc3)c(C(=O)NC)c2cc1-c1ccc(OC)c(C(=O)NC(C)(C#N)C(C)C)c1` (stereo not shown) [Compound 1014]: the pEC50 in data set [1] is more than 7.00.
For the molecule `CCN(C#N)c1cc2oc(-c3ccc(F)cc3)c(C(=O)NC)c2cc1-c1cccc(C(=O)NC2(C#N)CCC2)c1` [Compound 1015], the pEC50 in data set [1] is more than 7.00.
Consider `CCN(C#N)c1cc2oc(-c3ccc(F)cc3)c(C(=O)NC)c2cc1-c1cccc(C(=O)NC(C)(C)C(=O)OC)c1` [Compound 1016], for which the pEC50 in data set [1] is more than 7.00.
For the molecule `[2H]C([2H])([2H])C(NC(=O)c1cc(-c2cc3c(C(=O)NC)c(-c4ccc(F)cc4)oc3cc2N(C#N)CC)ccc1OC)(C([2H])([2H])[2H])C([2H])([2H])[2H]` [Compound 1017], in data set [1], the pEC50 is more than 7.00 and the EC50 was 0.0039 µM.
Turning to `CNC(=O)c1c(-c2ccc(F)cc2)oc2cc(N(CCO)S(C)(=O)=O)c(C3CC3)cc12` [HCV-796], in data set [2] (extended dosing of the combination regimens), the hepatic toxicity entry was “hepatic toxicity observed during extended dosing of the combination regimens”. Moreover, the “HCV RNA levels in patients” value in data set [2] (patients, single agent or combined with interferon and ribavirin) was “has shown an ability to reduce HCV RNA levels in patients”.
As for alpha-interferon and ribavirin, the “sustained efficacy in patients” value in data set [3] is 40%.
